Source: patent EP3900722A1, “COMBINATION OF FINERENONE AND PECAVAPTAN FOR THE TREATMENT AND/OR PREVENTION OF CARDIOVASCULAR AND/OR RENAL DISEASES” (Bayer AG, priority 2020, dated 2021)

Tested on: awake Wistar rats with activated renin-angiotensin-aldosterone system
Assay: In vivo assay for detecting natriuretic activity in conscious rats with activated RAAS
Set-up: Volume urine / body weight: unit not given here
Conditions: 8 hours after oral administration, metabolic cages, 3 mg/kg Finerenone, 0.3 mg/kg Pecavaptan, or both combined, mean ± SD, n = 7-8; for Urinary Na+/K+ concentration ratio: calculated from urinary sodium and potassium concentrations
Excerpt: Wistar rats (ca. 250-500 g body weight) were kept with free access to feed (Altromin) and drinking water. […] This sodium-reduced feed causes an activation of the RAAS in the animals during the 3 days run-in phase and therefore mimics a neuroendocrine activation which is characteristic for cardiorenal diseases. During the test, the animals were housed singly in metabolic cages suitable for rats of this weight class (Tecniplast Deutschland GmbH, D-82383 Hohenpeissenberg) with free access to reduced-salt feed and drinking water for up to 24 hours. At the start of the test, the substance to be tested was administered by means of gavage in a volume of 2-3 ml/kg of body weight of a suitable solvent ('Adalat Placebo': 85.8% PEG400, 5.3% glycerol, 8.9% water). Control animals received only solvent ('Adalat Placebo' or solvent in table 2 below). Controls and substance tests were carried out in parallel on the same day. Control groups and substance-dose groups each consisted of 7 to 8 animals. During the test, the urine excreted by the animals was continuously collected in a receiver on the base of the cage. The urine volume per collection time was determined separately for each animal, and the concentration of the sodium and potassium ions excreted in the urine was measured by standard methods of flame photometry by a clinical-chemical analyzer system (ADVIA 2400, Siemens). The sodium/potassium ratio was calculated on the basis of the individual urinary sodium and potassium concentrations. The measurement intervals were typically the period up to 8 hours after the start of the test (day interval) or up to 24 hours after the start of the test (day and night interval).
In this comparison, four different administrations were performed: Group A received the solvent (Adalat Placebo) only. This group serves as control group. Group B received finerenone only. It serves to detect the effect of the monotherapy with finerenone. Group C received pecavaptan only. It serves to detect the effect of the monotherapy with pecavaptan. Group D received finerenone and pecavaptan in combination. It serves to detect the effect of the combined therapy with finerenone and pecavaptan (combination according to the invention). After the treatment, the urinary volume, urinary sodium and potassium concentrations were measured. Based on this measurement the sodium/potassium ratio was calculated. Table 2: Measured data (mean values ± standard deviation [SD]) of urinary volume, urinary potassium concentration (K+), urinary sodium concentration (Na+), and the resulting urinary sodium / potassium concentration ratio from awake Wistar rats with activated renin-angiotensin-aldosterone system (n = 7-8 animals per group), which were examined according to the 'assessment of the physiological efficacy' for 8 hours after oral administration of the substances in metabolic cages.

SMILES | Urinary K+ concentration | Urinary Na+ concentration | Volume urine / body weight | Urinary Na+/K+ concentration ratio | Urinary Na+/K+ concentration ratio (listed as finerenone) | Urinary K+ concentration (listed as finerenone) | Urinary Na+ concentration (listed as finerenone) | Volume urine / body weight (listed as finerenone) | Urinary Na+/K+ concentration ratio (listed as pecavaptan) | Urinary K+ concentration (listed as pecavaptan) | Urinary Na+ concentration (listed as pecavaptan) | Volume urine / body weight (listed as pecavaptan)
CCOc1ncc(C)c2c1[C@H](c1ccc(C#N)cc1OC)C(C(N)=O)=C(C)N2 [Finerenone, (S)-4-(4-cyano-2-methoxyphenyl)-5-ethoxy-2,8-dimethyl-1,4-dihydro-1,6-naphthyridin-3-carboxamide] | 0.84 ± 0.04 mmol | 0.24 ± 0.03 mmol | 12.069 ±0.563 | 0.283 ±0.031 | increase | no influence | increase | no influence |  |  |  | 
C[C@H](O)c1nc(Cn2nc(-c3ccc(Cl)cc3)n(C[C@H](O)C(F)(F)F)c2=O)nn1-c1cccc(Cl)c1 [Pecavaptan, 5-(4-chlorophenyl)-2-({1-(3-chlorophenyl)-5-[(1S)-1-hydroxyethyl]-1H-1,2,4-triazol-3-yl}methyl)-4-[(2S)-3,3,3-trifluoro-2-hydroxypropyl]-2,4-dihydro-3H-1,2,4-triazol-3-one] | 1.35 ± 0.08 mmol | 0.72 ± 0.11 mmol | 80.070 ±9.661 | 0.534 ±0.074 |  |  |  |  | increased | increases | increases | increases
